According to paper PMC12006171, “Marsupial cathelicidins: characterization, antimicrobial activity and evolution in this unique mammalian lineage” (Frontiers in Immunology, 2025):
≈ marks a conversion by molar mass, not a printed value. Read-outs that look alike come from different tables or passages of the source. One block for each molecule: values may come before it. Where a SMILES comes first, the peptide text is derived from it.

Legend:
Test in all cases: microbe, parasite or virus in culture
Format in all cases: cell-based
[1] = tested on: Streptococcus agalactiae ATCC 12386; conditions: for MIC: Streptococcus agalactiae, ATCC12386, read-out: MIC S. agalactiae ATCC
Method: (§1) Antimicrobial testing of 78 cathelicidin MPs was performed in two phases as outlined in Figure 1 . In phase I, 40 peptides (27 extant and 13 ancestral) were selected for testing based on rank (outlined above) and similarity to published marsupial cathelicidins with known antimicrobial activity ([33], [41]–[43]). These peptides were tested against nine bacteria (Staphylococcus aureus ATCC 29213 and clinical isolate, Escherichia coli ATCC 25922 and clinical isolate, Pseudomonas aeruginosa ATCC 27853 and clinical isolate, Streptococcus agalactiae ATCC 12386 and clinical isolate, Streptococcus pneumoniae ATCC 49619) and three fungi (Candida krusei ATCC 6258, Candida parapsilosis ATCC 22019, and Candida albicans clinical isolate). Details regarding these strains are available in Supplementary Table 4 . The antimicrobial activity of cathelicidins was determined as the minimum inhibitory concentration (MIC), which was the lowest concentration of cathelicidin that prevented visible bacterial or fungal growth, relative to the negative control. […] Minimum bactericidal concentration (MBC) and/or minimum fungicidal concentration (MFC) was conducted to determine microbicidal versus static action. Activity against S. aureus ATCC, E. coli ATCC, and Pseudomonas aeruginosa ATCC 27853 was examined in the presence of divalent cations to determine the impact of inhibitors.
(§2) Antimicrobial activity was determined using a broth microdilution susceptibility assay in 96 well polypropylene plates according to Clinical Laboratory Standards Institute guidelines M07-A and M26A as described previously ([33], [42], [43]). The bacterial and fungal isolates from humans and animals used in this study are outlined in Supplementary Table 4 . Only yeasts were included in the panel of fungi as they have been used in the susceptibility testing of eutherian ([3], [81]–[83]) and other marsupial cathelicidins previously ([33], [42], [43]). Cathelicidin mature peptides were solubilized in DMSO and serially diluted in duplicate from 128-0.25μg/mL in a final volume of 100µL. For bacteria, cathelicidins were diluted in Mueller Hinton Broth (MHB) with or without 10% lysed horse blood, and with (MH II B) or without (MHB) calcium and magnesium cations. For fungi, cathelicidins were diluted in Roswell Park Memorial Institute medium (RPMI)-1640 MOPS. Ampicillin or tetracycline were included as a positive control for Gram-positive and -negative bacteria respectively, while amphotericin B was used for fungi. A media-only negative control and growth control (no cathelicidin) were also included on each plate. Bacteria were sub-cultured on Muller Hinton agar (MHA) or sheep blood agar (BA), and fungi on Sabouraud dextrose agar (SAB), 20–24 hours prior to the test. Colonies were suspended in saline, the concentration adjusted to a 0.5 McFarland standard, and then diluted in media to a concentration of 1.0 x 10^6 cells/mL. Then, 100μL was added to each well of the cathelicidin dilution plate, giving a final inoculum density of 5 x 10^5 CFU/mL and cathelicidin concentration of 64-0.125μg/mL. Colony counts were performed on MHA/BA/SAB to confirm inoculum density. All plates were incubated at 35°C for 20–24 hours, depending on the strain.
(§3) Colonies were counted and compared to the colony count of the starting inoculum.

[2] = tested on: Streptococcus agalactiae Clinical isolate - animal; conditions: for MIC: Streptococcus agalactiae, clinical isolate, read-out: MIC S. agalactiae
Method: as §1, §2, §3

[3] = tested on: Streptococcus pneumoniae ATCC 49619; conditions: for MIC: Streptococcus pneumoniae, ATCC49619, read-out: MIC S. pneumoniae ATCC
Method: as §1, §2, §3

[4] = tested on: Staphylococcus aureus ATCC 29213
Summary of the method: (§4)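 Each isolate was exposed to twofold peptide dilutions (final 64-0.125μg/mL) in Mueller Hinton broth, optionally supplemented with calcium and magnesium or 10% lysed horse blood. The MIC was taken as the lowest concentration lacking visible growth after 20–24 hours at 35°C.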

[5] = tested on: Staphylococcus aureus clinical isolate - animal
Summary of the method: as §4

[6] = tested on: Escherichia coli clinical isolate - animal; conditions: for MIC: Escherichia coli, clinical isolate
Summary of the method: as §4

[7] = tested on: Escherichia coli ATCC 25922
Summary of the method: as §4

[8] = tested on: Pseudomonas aeruginosa clinical isolate - animal; conditions: clinical isolate - animal
Summary of the method: as §4

[9] = tested on: Pseudomonas aeruginosa ATCC 27853; conditions: ATCC 27853
Summary of the method: as §4

[10] = phase I peptides only, 5 x 10^5 CFU/mL, 35°C 20–24 hours, duplicate

- MIC [1, 10]: 0.25 µg/mL
- MIC ([1]; µM equivalent of Table 3): 0.7 µM
- MIC [2, 10]: 0.25 µg/mL
- MIC ([2]; µM equivalent of Table 3): 0.7 µM
- MIC [3, 10]: > 64 µg/mL
- MIC ([3]; µM equivalent of Table 3): > 183 µM
- MIC ([4]; Staphylococcus aureus, ATCC29213, MHB without cations, 5 x 10^5 CFU/mL, 35°C 20–24 hours, duplicate, 64-0.125μg/mL, read-out: MIC S. aureus ATCC): 1 µg/mL
- MIC ([4]; Staphylococcus aureus, ATCC29213, superscript value, cation-adjusted Mueller Hinton broth (calcium and magnesium), read-out: MIC in the presence of cations S. aureus ATCC): 2 µg/mL
- MIC ([4]; Staphylococcus aureus, ATCC29213, superscript value, cation-adjusted Mueller Hinton broth, µM equivalent of Table 3, read-out: MIC in the presence of cations S. aureus ATCC): 5.7 µM
- MIC ([4]; Staphylococcus aureus, ATCC29213, µM equivalent of Table 3, read-out: MIC S. aureus ATCC): 2.8 µM
- MIC ([5]; Staphylococcus aureus, clinical isolate, MHB without cations, 5 x 10^5 CFU/mL, 35°C 20–24 hours, duplicate, read-out: MIC S. aureus): 0.25 µg/mL
- MIC ([5]; Staphylococcus aureus, clinical isolate, superscript value, cation-adjusted Mueller Hinton broth, read-out: MIC in the presence of cations S. aureus): 0.25 µg/mL
- MIC ([5]; Staphylococcus aureus, clinical isolate, superscript value, cation-adjusted Mueller Hinton broth, µM equivalent, read-out: MIC in the presence of cations S. aureus): 0.7 µM
- MIC ([5]; Staphylococcus aureus, clinical isolate, µM equivalent of Table 3, read-out: MIC S. aureus): 0.7 µM
- MIC ([6]; MHB without cations, 5 x 10^5 CFU/mL, 35°C 20–24 hours, duplicate): > 64 µg/mL
- MIC ([6]; µM equivalent of Table 3): > 183 µM
- MIC ([7]; Escherichia coli, ATCC25922, MHB without cations, 5 x 10^5 CFU/mL, 35°C 20–24 hours, duplicate, read-out: MIC E. coli ATCC): 4 µg/mL
- MIC ([7]; Escherichia coli, ATCC25922, superscript value, cation-adjusted Mueller Hinton broth, read-out: MIC in the presence of cations E. coli ATCC): 8 µg/mL
- MIC ([7]; Escherichia coli, ATCC25922, superscript value, cation-adjusted Mueller Hinton broth, µM equivalent, read-out: MIC in the presence of cations E. coli ATCC): 22.8 µM
- MIC ([7]; Escherichia coli, ATCC25922, µM equivalent of Table 3, read-out: MIC E. coli ATCC): 11.4 µM
Structure (SMILES): CC1(C)S[C@@H]2[C@H](NC(=O)[C@H](N)c3ccccc3)C(=O)N2[C@H]1C(=O)O [Ampicillin, reference compound]

- MIC S. agalactiae ATCC ([1]; ATCC 12386): 15.1 µM (≈ 64 µg/mL)
- MIC S. agalactiae ([2]; clinical isolate - animal): 15.1 µM (≈ 64 µg/mL)
- MIC S. pneumoniae ATCC ([3]; ATCC 49619): 7.5 µM (≈ 31.8 µg/mL)
- MIC ([4]; ATCC 29213, read-out: MIC S. aureus ATCC): >15.1 µM
- MIC ([8]; read-out: MIC P. aeruginosa): 7.5 µM (≈ 31.8 µg/mL)
- MIC ([8]; read-out: MIC in the presence of cations P. aeruginosa): 7.5 µM
- MIC ([5]; clinical isolate - animal, read-out: MIC S. aureus): >15.1 µM
- MIC E. coli ([6]; clinical isolate - animal): 3.7 (3.7)^3.7 µM
- MIC in the presence of cations E. coli ([6]; clinical isolate - animal): 3.7 (3.7)^3.7 µM
- MIC P. aeruginosa ATCC [9]: 7.5 (7.5)^7.5 µM
- MIC in the presence of cations P. aeruginosa ATCC [9]: 7.5 (7.5)^7.5 µM
- MIC ([7]; ATCC 25922, read-out: MIC E. coli ATCC): 1.8 µM
- MIC ([7]; ATCC 25922, read-out: MIC in the presence of cations E. coli ATCC): 1.8 µM
Structure (SMILES): CC[C@H](C)[C@H](NC(=O)[C@H](C)NC(=O)[C@H](CC(N)=O)NC(=O)[C@H](CCCCN)NC(=O)[C@H](CC(C)C)NC(=O)[C@@H](NC(=O)[C@H](CC(N)=O)NC(=O)[C@H](CCCCN)NC(=O)[C@@H](NC(=O)[C@H](CCCCN)NC(=O)[C@H](CC(=O)O)NC(=O)CNC(=O)[C@H](C)NC(=O)[C@H](CCCCN)NC(=O)[C@H](CCCCN)NC(=O)[C@H](CC(C)C)NC(=O)[C@H](CC(C)C)NC(=O)[C@H](CC(N)=O)NC(=O)[C@H](CCCCN)NC(=O)[C@H](Cc1ccccc1)NC(=O)[C@H](CCCCN)NC(=O)[C@H](CCC(=O)O)NC(=O)[C@H](Cc1ccccc1)NC(=O)[C@@H](NC(=O)[C@H](CCCNC(=N)N)NC(=O)[C@H](CC(C)C)NC(=O)[C@H](CCCNC(=N)N)NC(=O)[C@@H](N)CCCCN)[C@@H](C)CC)[C@@H](C)CC)[C@@H](C)O)C(=O)N[C@@H](CC(N)=O)C(=O)NCC(=O)N[C@@H](CC(C)C)C(=O)N[C@@H](CC(C)C)C(=O)N[C@@H](CO)C(=O)N1CCC[C@H]1C(=O)N[C@H](C(=O)NCC(=O)N[C@@H](CCCNC(=N)N)C(=O)O)[C@@H](C)CC [MAP7] (H-KRLRIFEKFKNLLKKAGDKIKNTLKNAINGLLSPIGR-OH)
- MBC S. agalactiae ATCC ([1]; ATCC 12386): 15.1 µM (≈ 64 µg/mL)
- MBC S. agalactiae ([2]; clinical isolate - animal): 15.1 µM (≈ 64 µg/mL)
- MBC S. pneumoniae ATCC ([3]; ATCC 49619): 7.5 µM (≈ 31.8 µg/mL)
- MBC P. aeruginosa [8]: 64 µg/mL (≈ 15.1 µM)
- MBC E. coli ([6]; clinical isolate - animal): 3.7 (3.7)^3.7 µM
- MBC P. aeruginosa ATCC [9]: 7.5 (7.5)^7.5 µM
- MBC E. coli ATCC ([7]; ATCC 25922): 3.7 µM (≈ 15.7 µg/mL)
